Starred links: 1 amine or outer side, 2 acyl side, 3 side chain; linkers in the order of their positions; H or OH if unused. Positions of bridges follow the written chain, without caps; N, C: chain ends. Non-standard residues stand in square brackets, D forms with d. Residues, ends and D or L forms follow the SMILES beside them. Groups on a side chain read outwards from the residue. *: point of attachment. Trp(7-(3-AcNH-Ph)) = CC(=O)Nc1cccc(-c2cccc3c(C[C@H](N)C(=O)O)c[nH]c23)c1; Me3N+(CH2)2O(CH2)2O(CH2)2CO = C[N+](C)(C)CCOCCOCCC(=O)*; NH(CH2CH2O)2CH2CH2NMe3+ = C[N+](C)(C)CCOCCOCCN*; 2Nal(6-OH) = N[C@@H](Cc1ccc2cc(O)ccc2c1)C(=O)O; Trp(7-Me) = Cc1cccc2c(C[C@H](N)C(=O)O)c[nH]c12; dLys(Me3) = C[N+](C)(C)CCCC[C@@H](N)C(=O)O; C18 diacid = O=C(O)CCCCCCCCCCCCCCCCC(=O)*; Dab(NMeAc) = CC(=O)N(C)CC[C@H](N)C(=O)O; γGlu = O=C(O)[C@H](CCC(=O)[*:2])N[*:1]; X9 = CN(CC*)C(=O)CCOCCOCC[N+](C)(C)C; AEF = NCCOc1ccc(C[C@H](N)C(=O)O)cc1; 3Pal = N[C@@H](Cc1cccnc1)C(=O)O; Ethyl(2-guanidino) = N=C(N)NCC*; Lys(Me) = CNCCCC[C@H](N)C(=O)O; Pen = CC(C)(S)[C@H](N)C(=O)O; Thp = NC1(C(=O)O)CCOCC1; X18 = C[N+](C)(C)CCCCC*; AEEA = NCCOCCOCC(=O)O; Sar = CNCC(=O)O
Tests used:
[1] = target: T1, IL-23-stimulated phosphorylated STAT3 in peripheral blood mononuclear cells (PBMCs) (Homo sapiens, UniProt Q5VWK5); assay: PBMC pSTAT3 Assay; assay type: cell-based; conditions: PBMCs from healthy donors, IL-23 5 ng/mL, 30 minutes, read-out: PBMC pSTAT3 IC50
T1 sequence (Q5VWK5 24-629): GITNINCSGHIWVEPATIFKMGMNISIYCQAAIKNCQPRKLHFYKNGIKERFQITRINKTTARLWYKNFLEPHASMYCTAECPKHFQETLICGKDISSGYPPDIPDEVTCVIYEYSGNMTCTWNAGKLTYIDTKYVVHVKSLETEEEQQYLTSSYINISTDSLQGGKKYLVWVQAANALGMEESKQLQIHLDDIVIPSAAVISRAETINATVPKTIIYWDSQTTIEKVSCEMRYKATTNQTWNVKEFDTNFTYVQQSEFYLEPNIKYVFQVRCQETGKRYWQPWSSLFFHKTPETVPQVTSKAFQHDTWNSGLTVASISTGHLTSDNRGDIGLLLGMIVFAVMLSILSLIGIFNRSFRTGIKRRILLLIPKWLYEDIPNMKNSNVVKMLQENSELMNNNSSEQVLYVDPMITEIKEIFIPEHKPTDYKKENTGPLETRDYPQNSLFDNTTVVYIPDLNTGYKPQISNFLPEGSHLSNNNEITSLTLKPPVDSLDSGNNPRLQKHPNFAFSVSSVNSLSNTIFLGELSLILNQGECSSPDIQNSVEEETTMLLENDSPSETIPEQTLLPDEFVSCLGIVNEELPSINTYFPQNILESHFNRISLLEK
Description: Cryopreserved peripheral blood mononuclear cells (PBMCs) from healthy donors were thawed and washed twice in ImmunoCult-XF T cell expansion medium (XF-TCEM) supplemented with CTL anti-aggregate wash. The cells were counted, resuspended at 2-6×10^5 cells per mL XF-TCEM supplemented with penicillin/streptomycin and 100 ng/mL IL-1β (BioLegend, 579404), and cultured in tissue culture flasks coated with anti-CD3 (eBioscience, 16-0037-85 or BD Pharmingen, 555329) at 37° C. in 5% CO2. On day 4 of culture, PBMCs were collected, washed twice in RPMI-1640 supplemented with 0.1% BSA (RPMI-BSA), and incubated in RPMI-BSA in upright tissue culture flasks for ˜4 hours at 37° C. in 5% CO2. Following this ‘starvation,’ a total of 6×10^4 cells in 30 μL RPMI-BSA was transferred into each well of a 384-well plate pre-spotted with peptide or DMSO. The cells were incubated for 30 minutes prior to the addition of IL-23 at a final concentration of 5 ng/mL. The cells were stimulated with cytokine for 30 minutes at 37° C. in 5% CO2, transferred onto ice for 10 minutes, and lysed. Cell lysates were stored at −80° C. until phosphorylated STAT3 was measured using the phospho-STAT panel kit (Meso Scale Discovery, K15202D).

IL-23R = target: T2, IL-23R (Homo sapiens, UniProt Q5VWK5); assay: IL23R Reporter Assay; assay type: cell-based; conditions: HEK293 cells containing IL-23R, IL-12Rβ1 and STAT-inducible luciferase reporter; 10 ng/mL IL-23; 5 h; read-out: IC50
T2 construct: host or cells: HEK293
T2 sequence (Q5VWK5 24-629): T1 sequence (Q5VWK5 24-629)
Description: Compounds were serially diluted in 100% (v/v) DMSO) and plated using an Echo acoustic dispenser (Labcyte) into 1536-well non-treated black assay plates (Corning #9146). […] After 5 h at 37° C., 5% CO2, 95% relative humidity, cells were placed at 20° C. and treated with BioGlo reagent (Promega) according to the Manufacturer's instructions. Luminescence was measured on a Pherastar FSX (BMG LabTech).

## CC(=O)N[C@@H]1C(=O)N[C@@H](CC(=O)N(C)C)C(=O)N[C@@H]([C@@H](C)O)C(=O)N[C@@H](Cc2c[nH]c3c(C)cccc23)C(=O)N[C@@H](CCCCN(C)C(C)=O)C(=O)N[C@H](C(=O)N[C@@H](Cc2ccc(OCCN(C)C(=O)CCOCCOCC[N+](C)(C)C)cc2)C(=O)N[C@@H](Cc2ccc3cc(O)ccc3c2)C(=O)NC2(C(=O)N[C@@H](CCCCN(C)C(C)=O)C(=O)N[C@@H](CC(N)=O)C(=O)N[C@@H](Cc3cccnc3)C(=O)N(C)CC(=O)NCCOCCOCC[N+](C)(C)C)CCOCC2)C(C)(C)SSC1(C)C [compound 315, MeCO-Pen(3)-N(NMe2)-T-7MeW-K(NMeAc)-Pen(3)-AEF(NMePEG3a)-6OH2Nal-THP-K(NMeAc)-N-3Pya-Sar-CONH(PEG3a)] (Ac-[Pen]D(NMe2)T[Trp(7-Me)][Lys(Me)](Ac)[Pen]Y(X9)[2Nal(6-OH)][Thp][Lys(Me)](Ac)N[3Pal][Sar]-{NH(CH2CH2O)2CH2CH2NMe3+}; disulfide 1-6)
[1]
  IC50: 0.01 to 0.1 nM
IL-23R
  IC50: < 10 nM

## CC(=O)N(C)CCCC[C@@H]1NC(=O)[C@H](Cc2c[nH]c3c(C)cccc23)NC(=O)[C@H]([C@@H](C)O)NC(=O)[C@H](CC(=O)N(C)C)NC(=O)[C@@H](NC(=O)CCOCCOCC[N+](C)(C)C)C(C)(C)SSC(C)(C)[C@@H](C(=O)N[C@@H](Cc2ccc(OCCN)cc2)C(=O)N[C@@H](Cc2ccc3cc(O)ccc3c2)C(=O)NC2(C(=O)N[C@@H](CCN(C)C(C)=O)C(=O)N[C@@H](CC(N)=O)C(=O)N[C@@H](Cc3cccnc3)C(=O)N(C)CC(=O)N(C)C)CCOCC2)NC1=O [compound 371, cPEG3aCO-Pen(3)-N(N(Me)2)-T-7MeW-K(NMeAc)-Pen(3)-AEF-6OH2Nal-THP-Dab(NMeAc)-N-3Pya-Sar-CON(Me)2] ({Me3N+(CH2)2O(CH2)2O(CH2)2CO}-[Pen]D(NMe2)T[Trp(7-Me)][Lys(Me)](Ac)[Pen][AEF][2Nal(6-OH)][Thp][Dab(NMeAc)]N[3Pal][Sar]-NMe2; disulfide 1-6)
[1]
  IC50: < 0.01 nM
IL-23R
  IC50: < 10 nM

## CC(=O)NCCCC[C@@H]1NC(=O)[C@H](Cc2c[nH]c3c(-c4cccc(NC(C)=O)c4)cccc23)NC(=O)[C@H]([C@@H](C)O)NC(=O)[C@H](CC(N)=O)NC(=O)[C@@H](NC(=O)CCOCCOCC[N+](C)(C)C)C(C)(C)SSC(C)(C)[C@@H](C(=O)N[C@@H](Cc2ccc(OCCNC(=N)N)cc2)C(=O)N[C@@H](Cc2ccc3cc(O)ccc3c2)C(=O)NC2(C(=O)N[C@@H](CCCCN(C)C(C)=O)C(=O)N[C@@H](CC(N)=O)C(=O)N[C@@H](Cc3cccnc3)C(=O)N(C)CC(N)=O)CCOCC2)NC1=O [compound 34, cPEG3aCO-Pen(3)-N-T-7(3NAcPh)W-K(Ac)-Pen(3)-AEF(G)-6OH2Nal-THP-K(NMeAc)-N-3Pya-Sar-CONH2] ({Me3N+(CH2)2O(CH2)2O(CH2)2CO}-[Pen]NT[Trp(7-(3-AcNH-Ph))]K(Ac)[Pen]Y(Ethyl(2-guanidino))[2Nal(6-OH)][Thp][Lys(Me)](Ac)N[3Pal][Sar]-NH2; disulfide 1-6)
[1]
  IC50: 0.01 to 0.1 nM
IL-23R
  IC50: < 10 nM

## CC(=O)NCCCC[C@@H]1NC(=O)[C@H](Cc2c[nH]c3c(C)cccc23)NC(=O)[C@H]([C@@H](C)O)NC(=O)[C@H](CC(N)=O)NC(=O)[C@@H](NC(C)=O)C(C)(C)SSC(C)(C)[C@@H](C(=O)N[C@@H](Cc2ccc(OCCN)cc2)C(=O)N[C@@H](Cc2ccc3cc(O)ccc3c2)C(=O)NC2(C(=O)N[C@@H](CCCCNC(=O)COCCOCCNC(=O)COCCOCCNC(=O)CC[C@H](NC(=O)CCCCCCCCCCCCCCCCC(=O)O)C(=O)O)C(=O)N[C@@H](CC(N)=O)C(=O)N[C@@H](Cc3cccnc3)C(=O)N(C)CC(N)=O)CCOCC2)NC1=O [SEQ ID NO: 273, MeCO-Pen(3)-N-T-7MeW-K(Ac)-Pen(3)-AEF-6OH2Nal-THP-K(PEG2PEG2gEC18OH)-N-3Pya-Sar-CONH2] (Ac-[Pen]NT[Trp(7-Me)]K(Ac)[Pen][AEF][2Nal(6-OH)][Thp]K([AEEA-AEEA-γGlu-C18 diacid])N[3Pal][Sar]-NH2; disulfide 1-6)
[1]
  IC50: 0.01 to 0.1 nM
IL-23R
  IC50: 10 to 100 nM

## CC(=O)NCCCC[C@@H]1NC(=O)[C@H](Cc2c[nH]c3c(C)cccc23)NC(=O)[C@H]([C@@H](C)O)NC(=O)[C@@H]2CCC(=O)NCCOc3ccc(cc3)C[C@@H](C(=O)N[C@@H](Cc3ccc4cc(O)ccc4c3)C(=O)NC3(C(=O)N[C@@H](CCCCNC(C)=O)C(=O)N[C@@H](CC(N)=O)C(=O)N[C@@H](Cc4cccnc4)C(=O)N(C)CC(N)=O)CCOCC3)NC(=O)[C@@H](NC1=O)C(C)(C)SSC(C)(C)[C@H](NC(C)=O)C(=O)N2 [SEQ ID NO: 414, MeCO-Pen(3)-E(2)-T-7MeW-K(Ac)-Pen(3)-AEF(2)-6OH2Nal-THP-K(Ac)-N-3Pya-Sar-CONH2] (Ac-[Pen]ET[Trp(7-Me)]K(Ac)[Pen][AEF][2Nal(6-OH)][Thp]K(Ac)N[3Pal][Sar]-NH2; disulfide 1-6; lactam 2-7)
[1]
  IC50: < 0.01 nM
IL-23R
  IC50: < 10 nM

## CC(=O)NCCCC[C@@H]1NC(=O)[C@H](Cc2c[nH]c3c(C)cccc23)NC(=O)[C@H]([C@@H](C)O)NC(=O)[C@H](CC(N)=O)NC(=O)[C@@H](NC(=O)[C@@H](CCCNC(=N)N)NC(C)=O)C(C)(C)SSC(C)(C)[C@@H](C(=O)N[C@@H](Cc2ccc(OCCCCC[N+](C)(C)C)cc2)C(=O)N[C@@H](Cc2ccc3cc(O)ccc3c2)C(=O)NC2(C(=O)N[C@@H](CCC(=O)O)C(=O)N[C@@H](CC(N)=O)C(=O)N[C@@H](Cc3cccnc3)C(=O)N(C)CC(N)=O)CCOCC2)NC1=O [compound 59, MeCO-r-Pen(3)-N-T-7MeW-K(Ac)-Pen(3)-TMAPF-6OH2Nal-THP-E-N-3Pya-Sar-CONH2] (Ac-[dR][Pen]NT[Trp(7-Me)]K(Ac)[Pen]Y(X18)[2Nal(6-OH)][Thp]EN[3Pal][Sar]-NH2; disulfide 2-7)
[1]
  IC50: 0.01 to 0.1 nM
IL-23R
  IC50: < 10 nM

## CC(=O)NCCCC[C@@H]1NC(=O)[C@H](Cc2c[nH]c3c(-c4cccc(NC(C)=O)c4)cccc23)NC(=O)[C@H]([C@@H](C)O)NC(=O)[C@H](CC(N)=O)NC(=O)[C@@H](NC(=O)[C@@H](CCCC[N+](C)(C)C)NC(C)=O)C(C)(C)SSC(C)(C)[C@@H](C(=O)N[C@@H](Cc2ccc(OCCN)cc2)C(=O)N[C@@H](Cc2ccc3cc(O)ccc3c2)C(=O)NC2(C(=O)N[C@@H](CCC(=O)O)C(=O)N[C@@H](CC(N)=O)C(=O)N[C@@H](Cc3cccnc3)C(=O)N(C)CC(N)=O)CCOCC2)NC1=O [compound 68, MeCO-k(Me)3-Pen(3)-N-T-7(3NAcPh)W-K(Ac)-Pen(3)-AEF-6OH2Nal-THP-E-N-3Pya-Sar-CONH2] (Ac-[dLys(Me3)][Pen]NT[Trp(7-(3-AcNH-Ph))]K(Ac)[Pen][AEF][2Nal(6-OH)][Thp]EN[3Pal][Sar]-NH2; disulfide 2-7)
[1]
  IC50: 0.01 to 0.1 nM
IL-23R
  IC50: < 10 nM

## Cc1cccc2c(C[C@@H]3NC(=O)[C@H]([C@@H](C)O)NC(=O)[C@H](CC(N)=O)NC(=O)[C@@H](NC(=O)CCOCCOCC[N+](C)(C)C)C(C)(C)SSC(C)(C)[C@@H](C(=O)N[C@@H](Cc4ccc(OCCN)cc4)C(=O)N[C@@H](Cc4ccc5cc(O)ccc5c4)C(=O)NC4(C(=O)N[C@@H](CCC(=O)O)C(=O)N[C@@H](CC(N)=O)C(=O)N[C@@H](Cc5cccnc5)C(=O)N(C)CC(N)=O)CCOCC4)NC(=O)[C@H](CCCCN(C)C(=O)CCOCCOCC[N+](C)(C)C)NC3=O)c[nH]c12 [compound 319, cPEG3aCO-Pen(3)-N-T-7MeW-K(NMecPEG3a)-Pen(3)-AEF-6OH2Nal-THP-E-N-3Pya-Sar-CONH2] ({Me3N+(CH2)2O(CH2)2O(CH2)2CO}-[Pen]NT[Trp(7-Me)][Lys(Me)](Me3N+(CH2)2O(CH2)2O(CH2)2CO)[Pen][AEF][2Nal(6-OH)][Thp]EN[3Pal][Sar]-NH2; disulfide 1-6)
[1]
  IC50: 0.01 to 0.1 nM
IL-23R
  IC50: < 10 nM

Reference: patent US20240279281A1, “Peptide Inhibitors of Interleukin-23 Receptor” (Janssen Pharmaceutica NV, priority 2023, published 2024)
